Reference: ChEMBL document CHEMBL5241101, “Plant isoquinoline alkaloids: Advances in the chemistry and biology of berberine” (Eur J Med Chem, 2021)

Tests used:
[1] = system: K562; test: Cytotoxicity against human K562 cells assessed as cell growth inhibition incubated for 72 hrs by MTT assay; assay type: functional, cell-based; details: K562, 72 h
[2] = system: A549; test: Cytotoxicity against human A549 cells assessed as cell growth inhibition incubated for 72 hrs by MTT assay; assay type: functional, cell-based; details: A549, 72 h
[3] = system: Plasmodium falciparum; test: Antimalarial activity against chloroquine sensitive Plasmodium falciparum NF54 assessed as inhibition of parasite growth incubated for 72 hrs by [3H]-hypoxanthine incorporation assay based liquid scintillation counter; assay type: functional, organism-based
[4] = system: MCF7; test: Cytotoxicity against human MCF7 cells assessed as cell growth inhibition incubated for 48 hrs by WST-1 assay; assay type: functional, cell-based; details: MCF7, 48 h
[5] = system: BT-549; test: Cytotoxicity against human BT-549 cells assessed as cell growth inhibition incubated for 48 hrs by WST-1 assay; assay type: functional, cell-based; details: BT-549, 48 h
[6] = system: A549; test: Cytotoxicity against human A549 cells assessed as cell growth inhibition incubated for 48 hrs by WST-1 assay; assay type: functional, cell-based; details: A549, 48 h
[7] = system: COLO 201; test: Cytotoxicity against human COLO201 cells assessed as cell growth inhibition incubated for 48 hrs by WST-1 assay; assay type: functional, cell-based; details: COLO 201, 48 h
[8] = system: HL-60; test: Cytotoxicity against human HL-60 cells assessed as cell growth inhibition incubated for 48 hrs by WST-1 assay; assay type: functional, cell-based; details: HL-60, 48 h
[9] = system: Jurkat; test: Cytotoxicity against human Jurkat cells assessed as cell growth inhibition incubated for 48 hrs by WST-1 assay; assay type: functional, cell-based
[10] = system: AGS; test: Cytotoxicity against human AGS cells assessed as cell growth inhibition incubated for 48 hrs by WST-1 assay; assay type: functional, cell-based
[11] = system: A2780; test: Cytotoxicity against human A2780 cells assessed as cell growth inhibition incubated for 48 hrs by WST-1 assay; assay type: functional, cell-based; details: A2780, 48 h
[12] = system: HT-29; test: Cytotoxicity against human HT-29 cells assessed as cell growth inhibition incubated for 48 hrs by WST-1 assay; assay type: functional, cell-based; details: HT-29, 48 h
[13] = system: Plasmodium falciparum; test: Antimalarial activity against chloroquine resistant Plasmodium falciparum K1 assessed as inhibition of parasite growth incubated for 72 hrs by [3H]-hypoxanthine incorporation assay based liquid scintillation counter; assay type: functional, organism-based
[14] = system: HL-60; test: Antiproliferative activity against human HL-60 cells incubated for 96 hrs by MTT assay; assay type: functional, cell-based; details: HL-60, 96 h
[15] = system: Caco-2; test: Antiproliferative activity against human Caco-2 cells incubated for 96 hrs by MTT assay; assay type: functional, cell-based; details: Caco-2, 96 h
[16] = system: Jurkat; test: Cytotoxicity against human Jurkat cells assessed as cell growth inhibition incubated for 48 hrs by XTT assay; assay type: functional, cell-based
[17] = system: MOLT-4; test: Cytotoxicity against human MOLT-4 cells assessed as cell growth inhibition incubated for 48 hrs by XTT assay; assay type: functional, cell-based; details: MOLT-4, 48 h
[18] = system: HL-60; test: Cytotoxicity against human HL-60 cells assessed as cell growth inhibition incubated for 48 hrs by XTT assay; assay type: functional, cell-based; details: HL-60, 48 h
[19] = Toxicity in Sprague-Dawley rat assessed as LOAEL by po administrated gestational day upto 20 days; assay type: organism-based; details: in vivo, 480 h, time < 20 day
[20] = Oral bioavailability in Wistar rat at 100 mg/kg by UPLC-MS/MS analysis; assay type: ADME, organism-based; details: in vivo
[21] = Toxicity in Sprague-Dawley rat assessed as NOAEL by po administrated gestational day upto 20 days; assay type: organism-based; details: in vivo, time < 20 day
[22] = system: HaCaT; test: Cytotoxicity against human HaCaT cells assessed as decrease in cell viability at 50 uM incubated for 1 hr in presence of UV radiation by CellTiter-96 assay; assay type: toxicity, cell-based
[23] = system: HaCaT; test: Induction of DNA damage in human HaCaT cells assessed as fold change at 50 uM in presence of UV radiation by comet assay; assay type: toxicity, cell-based

Question: Which IC50 [1] does the source give for `O[C@H]1/C=C\[C@H]2C[C@]34CN5CCCC/C=C\CC[C@](O)(C=C(c6nccc7c6[nH]c6ccccc67)[C@@H]3CC5)[C@@H]4N2CCC1` here?
Answer: 5200 nM

Question: What about the IC50 [2] of the same compound?
Answer: 5800 nM

Question: For `O[C@]12C=C(c3nccc4c3[nH]c3ccccc34)[C@@H]3CCN(CCCC/C=C\CC1)C[C@@]31C[C@@H]3C=C[C@H]4CCC[N@+]43[C@H]12`, which IC50 [1] is on record?
Answer: 5200 nM

Question: And the IC50 [2]?
Answer: 5800 nM

Question: For `COc1cc(O)c(-c2cc(-c3cc(-c4c(O)cc5c(c4OC)[C@H](C)N[C@H](C)C5)c4cc(C)cc(OC)c4c3O)c(O)c3c(OC)cc(C)cc23)c2c1[C@H](C)N[C@H](C)C2`, which IC50 [3] is on record?
Answer: 34 nM

Question: What does the source list for `CO[C@@H]1C=C[C@@]23c4cc5c(cc4[C@H](O)N(C[C@@H]2O)[C@H]3C1)OCO5`?
Answer: IC50 [4]: 300 nM; IC50 [5]: 300 nM; IC50 [6]: 300 nM; IC50 [7]: 300 nM; IC50 [8]: 300 nM; IC50 [9]: 300 nM; IC50 [10]: 300 nM; IC50 [11]: 300 nM; IC50 [12]: 300 nM

Question: For `O[C@]12C=C(c3nccc4c3[nH]c3ccccc34)[C@@H]3CCN(CCCC/C=C\CC1)C[C@@]31C[C@@]34CC[C@@H](CCCN3[C@H]12)O4`, which IC50 [1] is on record?
Answer: 5200 nM

Question: What about the IC50 [2] of the same compound?
Answer: 5800 nM

Question: With `COc1cc(O)c(-c2cc(-c3cc(-c4c(O)cc5c(c4OC)[C@@H](C)N[C@H](C)C5)c4cc(C)cc(OC)c4c3O)c(O)c3c(OC)cc(C)cc23)c2c1[C@H](C)N[C@H](C)C2` as the compound, how does the IC50 [13] read?
Answer: 452 nM

Question: What about the IC50 [3] of the same compound?
Answer: 418 nM

Question: With `COC(=O)c1ccc(OC)c(OC)c1NC(=O)c1cc(C/C=C(\C)c2c3[n+](cc4c(OC)c(OC)ccc24)CCc2cc4c(cc2-3)OCO4)c2c(c1)OCO2` as the compound, how does the IC50 [14] read?
Answer: 10200 nM

Question: What about the IC50 [15] of the same compound?
Answer: 9240 nM

Question: Which results are given for `COc1ccc2c(c1OC)CN(C)[C@@H]1c3cc4c(cc3C[C@H](O)[C@H]21)OCO4`?
Answer: IC50 [16]: 4800 nM; IC50 [17]: 4800 nM; IC50 [18]: 4800 nM

Question: Which IC50 [1] does the source give for `[O-][N+]1=C([C@H]2[C@@H]3CCN4CCCC/C=C\CC[C@@]5(O[C@@H]25)[C@@H]2NCCCC/C=C\CC[C@@]23C4)c2[nH]c3ccccc3c2CC1` here?
Answer: 5200 nM

Question: And the IC50 [2]?
Answer: 5800 nM

Question: For `[O-][n+]1ccc2c([nH]c3ccccc32)c1[C@H]1[C@@H]2CCN3CCCC/C=C\CC[C@@]4(O[C@@H]14)[C@@H]1NCCCC/C=C\CC[C@@]12C3`, which IC50 [1] is on record?
Answer: 5200 nM

Question: What about the IC50 [2] of the same compound?
Answer: 5800 nM

Question: Which results are given for `O[C@H]1[C@@H](c2nccc3c2[nH]c2ccccc23)[C@@H]2CCN3CCCC/C=C\CC[C@@]1(O)[C@@H]1NCCCC/C=C\CC[C@]21C3`?
Answer: IC50 [1]: 5200 nM; IC50 [2]: 5800 nM

Question: Which IC50 [13] does the source give for `COc1cc(O)c(-c2cc(-c3cc(-c4c(O)cc5c(c4OC)[C@H](C)N[C@H](C)C5)c4cc(C)cc(OC)c4c3O)c(O)c3c(OC)cc(C)cc23)c2c1[C@@H](C)N[C@H](C)C2` here?
Answer: 138 nM

Question: And the IC50 [3]?
Answer: 210 nM

Question: What does the source list for `O[C@@H]1CCCN2[C@@H](CC1)C[C@]13CN4CCCC/C=C\CC[C@](O)(C=C(c5nccc6c5[nH]c5ccccc56)[C@@H]1CC4)[C@H]23` [32,33-DIHYDRO-31-HYDROXYMANZAMINE A]?
Answer: IC50 [1]: 5200 nM; IC50 [2]: 5800 nM

Question: For `CO[C@@H]1C=C[C@@]23c4cc5c(cc4CN(C[C@@H]2O)[C@H]3C1)OCO5` [(+)-HAEMANTHAMINE], which IC50 [4] is on record?
Answer: 300 nM

Question: What about the IC50 [5] of the same compound?
Answer: 300 nM

Question: What about the IC50 [6] of the same compound?
Answer: 300 nM

Question: What about the IC50 [7] of the same compound?
Answer: 300 nM

Question: And the IC50 [8]?
Answer: 300 nM

Question: What about the IC50 [9] of the same compound?
Answer: 300 nM

Question: And the IC50 [10]?
Answer: 300 nM

Question: And the IC50 [11]?
Answer: 300 nM

Question: And the IC50 [12]?
Answer: 300 nM

Question: Which LOAEL [19] does the source give for `COc1ccc2cc3[n+](cc2c1OC)CCc1cc2c(cc1-3)OCO2` [BERBERINE] here?
Answer: 1313 mg/kg

Question: What about the bioavailability [20] of the same compound?
Answer: 0.36%

Question: What about the NOAEL at 480 h [21] of the same compound?
Answer: 420 mg/kg

Question: What about the Activity [22] of the same compound?
Answer: 80%

Question: What about the “fold change (FC)” value [23] of the same compound?
Answer: 3

Question: Which IC50 [16] does the source give for `CN1Cc2c(ccc3c2OCO3)[C@@H]2[C@H]1c1cc3c(cc1C[C@@H]2O)OCO3` [CHELIDONINE] here?
Answer: 2200 nM

Question: And the IC50 [17]?
Answer: 2200 nM

Question: And the IC50 [18]?
Answer: 2200 nM

Question: With `O[C@H]1[C@H]2c3cc4c(cc3CN3CCC(=C[C@@H]1O)[C@H]23)OCO4` [LYCORINE] as the compound, how does the IC50 [4] read?
Answer: 300 nM

Question: What about the IC50 [5] of the same compound?
Answer: 300 nM

Question: What about the IC50 [6] of the same compound?
Answer: 300 nM

Question: What about the IC50 [7] of the same compound?
Answer: 300 nM

Question: And the IC50 [8]?
Answer: 300 nM

Question: And the IC50 [9]?
Answer: 300 nM

Question: And the IC50 [10]?
Answer: 300 nM

Question: What about the IC50 [11] of the same compound?
Answer: 300 nM

Question: And the IC50 [12]?
Answer: 300 nM

Question: With `O[C@]12C=C(c3nccc4c3[nH]c3ccccc34)[C@@H]3CCN(CCCC/C=C\CC1)C[C@@]31C[C@@H]3/C=C\CCCCN3[C@H]12` [MANZAMINE A] as the compound, how does the IC50 [1] read?
Answer: 5200 nM

Question: And the IC50 [2]?
Answer: 5800 nM

Question: Which results are given for `C1=C\CC[C@]23CN4CCCC/C=C\CC[C@@]5(O[C@H]5[C@@H](c5nccc6c5[nH]c5ccccc56)[C@@H]2CC4)[C@@H]3NCCCC/1` [MANZAMINE B]?
Answer: IC50 [1]: 5200 nM; IC50 [2]: 5800 nM
